# Measurements published in US8859625B2, “Methods to prepare penta-1,4-dien-3-ones and substituted cyclohexanones and derivatives with antitumoral and antiparasitic properties, the compounds and their uses” (Universidade Bandeirante de Sao Paulo-Academia, Paulista …, priority 2006, dated 2014).
# Key:
# [1] = system: Leishmania (L) amazonensis promastigote forms (isolate LV79); assay: Promastigote proliferation in RPMI medium, Neubauer chamber count; format: cell-based
# Method: Compounds are solubilized with dimethyl sulfoxide (DMSO) to produce a stock solution from which samples with different concentrations are obtained, by adding the culture medium in sufficient volume as required to attain the first desired concentration with the other concentrations being obtained by serial dilution of this first one, at ratio 2. The cultures are incubated at 22° C. or 34° C. for promastigotes and amastigotes, respectively.
# As a positive control for parasite viability evaluation, only culture medium and parasite, without any other addition, were used. As toxicity control for the solvent present in compound composition, parasite forms were incubated with DMSO diluted in culture medium.
# To quantify the promastigotes, Neubauer chambers are used and the cultures are quantified every 24 hours throughout the incubation period scheduled for each experiment. The samples are prepared from an initial dilution of 20 μL of the culture into 180 μL of the saline solution formulated (PBS+2% formaldehyde) to obtain a 1/10 dilution. Whenever necessary, serial dilutions may be performed from the first dilution. For all experiments, parasite forms should be incubated with several HB-1 concentrations, its respective controls with DMSO (we should have in mind that the initial HB-1 stock solution was prepared with DMSO and that its toxicity in relation to the parasite forms have to be assessed) and the normal culture, without any component additioned to the medium. Countings are performed as duplicates, by two different people and the final result is expressed as the arithmetic average from the two countings. The same procedure is employed to quantify the amastigote forms.
# Leishmania (L) amazonensis promastigote forms (isolade LV79, 1st passage in culture medium, day 7 of culture, stationary phase) are incubated at a proportion of 10^6 promastigotes/mL of RPMI medium, 3.0 mL final volume, in the presence of different concentrations of HB-1 and of the respective controls in DMSO. The effect of HB-1 compound on the proliferation of Leishmania (L) amazonensis promastigotes-RPMI medium is shown in the next Table and in FIG. 34.
# [2] = system: Leishmania (isolate L.C.L.) promastigotes; assay: Promastigote viability by MTT, L.C.L. isolate, Warren medium; format: cell-based; conditions: for O.D. (optical density at 595/690 nm, average of duplicates): Warren medium
# Method: Viability and/or cellular proliferative assays of promastigote and amastigote forms are also performed by the MTT (diphenyl tetrazolium 3-[4,5-dimethylthiazol-2il]2,5-bromide) method as described by Moreira, et al. (Moreira, M. E. C., Del Portillo, H. A., Milder, R. V., Balanco, J. M. F. and Barcinski, M. A. Heat shock induction of apoptosis in promastigotes of the unicellular organism Leishmania (Leishmania) amazonensis, J. Cell Physiol 167, 305-313, 1996), modified.
# After incubation of parasitic forms with the compounds, as described above, for predetermined periods of time for each experiment (24, 48, 72 hours, etc.), an 1.0 mL aliquot of cellular suspension is collected from each culture tube or vial and transferred to microcentrifuge tubes, where they are centrifuged at 14.000 rpm for 3 minutes, the culture medium is aspirated and discharged. To the sedimented cells are add 200 μL of PBS. After that, the volume in PBS of the cellular suspensions is splitted into two wells (duplicates of 100 μL each) of a 96 well culture plate. To each duplicate, […] of MTT (5 mg/mL stock solution, […]) are added. After 1 h or 1 h 30 min, at a temperature of 22° C. (promastigotes) or 34° C. (amastigotes), 100 μL of 10% SDS are added to each well to interrupt the reaction, to lyse the cells and to dissolve the formazan crystals, resulting in an homogeneous blue solution appropriate to the absorbance measure by a spectrophotometer for culture microplates (3550 BIORAD model, Richmond, Calif.), at 595 nm as test wavelength and 690 nm as the reference wavelength.
# The optical density (O.D.) values correspond to MTT enzymatic reduction by the metabolic active cells. Consequently, the O.D. is directly proportional to the number of viable cells of the cellular suspension. The progressive increase of O.D. indicates cellular proliferation. Results are expressed as arithmetic average of the optical density duplicates.
# This experiment is developed in the Warren medium using an initial inoculum of 2.0×10^6/mL of the medium for the isolates. Cultures were at the day 7^h of passage and at the final exponential phase growth (day 6 of incubation). The results of viability determination for the Leishmania (isolate L.C.L.) promastigotes, incubated in Warren medium and in the presence of HB-1, are shown in the next Table and in FIG. 36. The culture final volume is of 5 mL and the MTT reactions are processed in 1 h and 30 minutes of incubation, beginning with 1.0 mL of culture.
smiles,measurement,setting,value
"COc1cc(C=CC(=O)C=Cc2ccc(O)c(OC)c2)ccc1O [HB-1, 1,5-Bis-(4-hydroxy-3-methoxy-phenyl)-penta-1,4-dien-3-one]",N^o. of promastigotes/mL (×10^6),"[1]; HB-1 3.12 μg/mL, 24 hours",1.6 ×10^6 promastigotes/mL
same,N^o. of promastigotes/mL (×10^6),"[1]; HB-1 3.12 μg/mL, 48 hours",2.1 ×10^6 promastigotes/mL
same,N^o. of promastigotes/mL (×10^6),"[1]; HB-1 3.12 μg/mL, 72 hours",2.1 ×10^6 promastigotes/mL
same,N^o. of promastigotes/mL (×10^6),"[1]; HB-1 3.12 μg/mL, 144 hours",2.4 ×10^6 promastigotes/mL
same,N^o. of promastigotes/mL (×10^6),"[1]; HB-1 6.25 μg/mL, 24 hours",0.8 ×10^6 promastigotes/mL
same,N^o. of promastigotes/mL (×10^6),"[1]; HB-1 6.25 μg/mL, 48 hours",1.0 ×10^6 promastigotes/mL
same,N^o. of promastigotes/mL (×10^6),"[1]; HB-1 6.25 μg/mL, 72 hours",0.7 ×10^6 promastigotes/mL
same,N^o. of promastigotes/mL (×10^6),"[1]; HB-1 6.25 μg/mL, 144 hours",0.3 ×10^6 promastigotes/mL
same,N^o. of promastigotes/mL (×10^6),"[1]; HB-1 12.5 μg/mL, 24 hours",0.7 ×10^6 promastigotes/mL
same,N^o. of promastigotes/mL (×10^6),"[1]; HB-1 12.5 μg/mL, 48 hours",0 ×10^6 promastigotes/mL
same,N^o. of promastigotes/mL (×10^6),"[1]; HB-1 12.5 μg/mL, 72 hours",0 ×10^6 promastigotes/mL
same,N^o. of promastigotes/mL (×10^6),"[1]; HB-1 12.5 μg/mL, 144 hours",0 ×10^6 promastigotes/mL
same,N^o. of promastigotes/mL (×10^6),"[1]; HB-1 25 μg/mL, 24 hours",0.5 ×10^6 promastigotes/mL
same,N^o. of promastigotes/mL (×10^6),"[1]; HB-1 25 μg/mL, 48 hours",0 ×10^6 promastigotes/mL
same,N^o. of promastigotes/mL (×10^6),"[1]; HB-1 25 μg/mL, 72 hours",0 ×10^6 promastigotes/mL
same,N^o. of promastigotes/mL (×10^6),"[1]; HB-1 25 μg/mL, 144 hours",0 ×10^6 promastigotes/mL
same,N^o. of promastigotes/mL (×10^6),"[1]; HB-1 50 μg/mL, 24 hours",0.1 ×10^6 promastigotes/mL
same,N^o. of promastigotes/mL (×10^6),"[1]; HB-1 50 μg/mL, 48 hours",0 ×10^6 promastigotes/mL
same,N^o. of promastigotes/mL (×10^6),"[1]; HB-1 50 μg/mL, 72 hours",0 ×10^6 promastigotes/mL
same,N^o. of promastigotes/mL (×10^6),"[1]; HB-1 50 μg/mL, 144 hours",0 ×10^6 promastigotes/mL
same,inhibitory effect (=mortality),"[1]; HB-1 100 μg/mL to 12.5 μg/mL, 48 hours",100%
same,N^o. of promastigotes/mL (×10^6),"[1]; HB-1 100 μg/mL, 24 hours",0 ×10^6 promastigotes/mL
same,N^o. of promastigotes/mL (×10^6),"[1]; HB-1 100 μg/mL, 48 hours",0 ×10^6 promastigotes/mL
same,N^o. of promastigotes/mL (×10^6),"[1]; HB-1 100 μg/mL, 72 hours",0 ×10^6 promastigotes/mL
same,N^o. of promastigotes/mL (×10^6),"[1]; HB-1 100 μg/mL, 144 hours",0 ×10^6 promastigotes/mL
same,effect in words,[2]; HB-1 5 μg/mL,partial inhibition of proliferation
same,"O.D. (optical density at 595/690 nm, average of duplicates)","[2]; HB-1 5 μg/mL, 24 hours",0.489
same,"O.D. (optical density at 595/690 nm, average of duplicates)","[2]; HB-1 5 μg/mL, 48 hours",0.452
same,"O.D. (optical density at 595/690 nm, average of duplicates)","[2]; HB-1 5 μg/mL, 72 hours",1.346
same,"O.D. (optical density at 595/690 nm, average of duplicates)","[2]; HB-1 5 μg/mL, 96 hours",1.834
same,effect in words,[2]; HB-1 10 μg/mL,leishmaniostatic effect
same,"O.D. (optical density at 595/690 nm, average of duplicates)","[2]; HB-1 10 μg/mL, 24 hours",0.177
same,"O.D. (optical density at 595/690 nm, average of duplicates)","[2]; HB-1 10 μg/mL, 48 hours",0.153
same,"O.D. (optical density at 595/690 nm, average of duplicates)","[2]; HB-1 10 μg/mL, 72 hours",0.176
same,"O.D. (optical density at 595/690 nm, average of duplicates)","[2]; HB-1 10 μg/mL, 96 hours",0.187
same,effect in words,[2]; HB-1 20 μg/mL,leishmanicide
same,"O.D. (optical density at 595/690 nm, average of duplicates)","[2]; HB-1 20 μg/mL, 24 hours",0.056
same,"O.D. (optical density at 595/690 nm, average of duplicates)","[2]; HB-1 20 μg/mL, 48 hours",0.014
same,"O.D. (optical density at 595/690 nm, average of duplicates)","[2]; HB-1 20 μg/mL, 72 hours",0.012
same,"O.D. (optical density at 595/690 nm, average of duplicates)","[2]; HB-1 20 μg/mL, 96 hours",0.012
